Test results reported in ChEMBL document CHEMBL1201862, “PubChem BioAssay data set” (2004).
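1) Cells in 96-well plates. 2) Compound, 48 h, 5 concentrations. 3) Linear interpolation between surrounding doses. 4) Unreached endpoint = highest concentration. Abbreviation: GI50, concentration required for 50% inhibition of growth.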 Active and inactive are the calls of the source. No stated cut-off is given here; in the data, active = GI50 up to about 1.1 µM and inactive = higher.

Tests used:
Assay in all cases: growth of human tumour cells (NCI), 48 h
HCC 2998 = system: HCC 2998
NCI-H460 = system: NCI-H460
NCI-H226 = system: NCI-H226
SNB-75 = system: SNB-75
SN12C = system: SN12C
SK-OV-3 = system: SK-OV-3
SNB-19 = system: SNB-19
COLO 205 = system: COLO 205
786-0 = system: 786-0
HCT-15 = system: HCT-15
A549 = system: A549
UO-31 = system: UO-31
MDA-MB-231 = system: MDA-MB-231
BT-549 = system: BT-549
T47D = system: T47D
OVCAR-5 = system: OVCAR-5
SK-MEL-2 = system: SK-MEL-2
HT-29 = system: HT-29
U-251 = system: U-251
SF-539 = system: SF-539
OVCAR-3 = system: OVCAR-3
UACC-257 = system: UACC-257
EKVX = system: EKVX
NCI-H522 = system: NCI-H522
IGROV-1 = system: IGROV-1
HOP-62 = system: HOP-62
K562 = system: K562
KM12 = system: KM12
A498 = system: A498
UACC-62 = system: UACC-62
NCI/ADR-RES = system: NCI/ADR-RES
SW-620 = system: SW-620
Hs-578T = system: Hs-578T
MOLT-4 = system: MOLT-4
CAKI-1 = system: CAKI-1
SK-MEL-28 = system: SK-MEL-28
MDA-N = system: MDA-N
TK-10 = system: TK-10
ACHN = system: ACHN
LOX IMVI = system: LOX IMVI
RXF 393 = system: RXF 393
OVCAR-8 = system: OVCAR-8
OVCAR-4 = system: OVCAR-4
SF-295 = system: SF-295
HL-60 = system: HL-60
SK-MEL-5 = system: SK-MEL-5
RPMI-8226 = system: RPMI-8226
SF-268 = system: SF-268
M14 = system: M14
MCF7 = system: MCF7
Malme-3M = system: Malme-3M
HOP-92 = system: HOP-92
PC-3 = system: PC-3
CCRF-CEM = system: CCRF-CEM
HCT-116 = system: HCT-116
MDA-MB-435 = system: MDA-MB-435
NCI-H23 = system: NCI-H23
DU-145 = system: DU-145

Q: For `COC(=O)C1=C(C(=O)OC)C2(c3ccccc3)c3ccccc3C(=O)C1N2C1CCCCC1` (stereo unspecified), which GI50 (HCC 2998) is on record?
A: 23.2 µM (inactive)

Q: And the GI50 (NCI-H460)?
A: 24.5 µM (inactive)

Q: And the GI50 (NCI-H226)?
A: 50.4 µM (inactive)

Q: What about the GI50 (SNB-75) of the same compound?
A: > 66.8 µM (inactive)

Q: What about the GI50 (SN12C) of the same compound?
A: 49.5 µM (inactive)

Q: What about the GI50 (SK-OV-3) of the same compound?
A: > 96.2 µM (inactive)

Q: And the GI50 (SNB-19)?
A: > 63.4 µM (inactive)

Q: And the GI50 (COLO 205)?
A: 16.8 µM (inactive)

Q: And the GI50 (786-0)?
A: 47.4 µM (inactive)

Q: And the GI50 (HCT-15)?
A: 48.2 µM

Q: What about the GI50 (A549) of the same compound?
A: 17.7 µM (inactive)

Q: And the GI50 (UO-31)?
A: 13 µM (inactive)

Q: And the GI50 (MDA-MB-231)?
A: > 32.4 µM (inactive)

Q: What about the GI50 (BT-549) of the same compound?
A: > 100 µM (inactive)

Q: What about the GI50 (T47D) of the same compound?
A: > 100 µM (inactive)

Q: And the GI50 (OVCAR-5)?
A: 54.8 µM (inactive)

Q: What about the GI50 (SK-MEL-2) of the same compound?
A: > 61.9 µM (inactive)

Q: And the GI50 (HT-29)?
A: 42.1 µM (inactive)

Q: And the GI50 (U-251)?
A: 49.9 µM (inactive)

Q: And the GI50 (SF-539)?
A: 69.3 µM (inactive)

Q: And the GI50 (OVCAR-3)?
A: 72.6 µM (inactive)

Q: What about the GI50 (UACC-257) of the same compound?
A: 11.9 µM (inactive)

Q: And the GI50 (EKVX)?
A: 55.6 µM (inactive)

Q: What about the GI50 (NCI-H522) of the same compound?
A: 34.6 µM (inactive)

Q: And the GI50 (IGROV-1)?
A: 49.4 µM (inactive)

Q: What about the GI50 (HOP-62) of the same compound?
A: > 68.9 µM (inactive)

Q: And the GI50 (K562)?
A: 3.42 µM (inactive)

Q: What about the GI50 (KM12) of the same compound?
A: 17.8 µM (inactive)

Q: What about the GI50 (A498) of the same compound?
A: > 66.1 µM (inactive)

Q: What about the GI50 (UACC-62) of the same compound?
A: 61.8 µM (inactive)

Q: And the GI50 (NCI/ADR-RES)?
A: > 82 µM (inactive)

Q: And the GI50 (SW-620)?
A: 41.3 µM (inactive)

Q: What about the GI50 (Hs-578T) of the same compound?
A: 40.9 µM (inactive)

Q: What about the GI50 (MOLT-4) of the same compound?
A: 6.61 µM (inactive)

Q: And the GI50 (CAKI-1)?
A: 49.1 µM (inactive)

Q: What about the GI50 (SK-MEL-28) of the same compound?
A: > 62.1 µM (inactive)

Q: And the GI50 (MDA-N)?
A: > 65 µM (inactive)

Q: And the GI50 (TK-10)?
A: 31.3 µM (inactive)

Q: And the GI50 (ACHN)?
A: 29.2 µM (inactive)

Q: What about the GI50 (LOX IMVI) of the same compound?
A: 22 µM (inactive)

Q: What about the GI50 (RXF 393) of the same compound?
A: 33.7 µM (inactive)

Q: And the GI50 (OVCAR-8)?
A: 60.4 µM (inactive)

Q: What about the GI50 (OVCAR-4) of the same compound?
A: 58.2 µM (inactive)

Q: What about the GI50 (SF-295) of the same compound?
A: 25.5 µM (inactive)

Q: What about the GI50 (HL-60) of the same compound?
A: 3.1 µM (inactive)

Q: And the GI50 (SK-MEL-5)?
A: 26.2 µM (inactive)

Q: What about the GI50 (RPMI-8226) of the same compound?
A: 6.9 µM (inactive)

Q: And the GI50 (SF-268)?
A: 88.7 µM (inactive)

Q: What about the GI50 (M14) of the same compound?
A: 43.3 µM (inactive)

Q: And the GI50 (MCF7)?
A: 37.7 µM (inactive)

Q: And the GI50 (Malme-3M)?
A: 58.2 µM (inactive)

Q: And the GI50 (HOP-92)?
A: > 100 µM (inactive)

Q: And the GI50 (PC-3)?
A: 10.6 µM (inactive)

Q: What about the GI50 (CCRF-CEM) of the same compound?
A: 26.7 µM (inactive)

Q: And the GI50 (HCT-116)?
A: 14.7 µM (inactive)

Q: And the GI50 (MDA-MB-435)?
A: 86.7 µM (inactive)

Q: And the GI50 (NCI-H23)?
A: > 52.5 µM (inactive)

Q: What about the GI50 (DU-145) of the same compound?
A: > 100 µM (inactive)

Q: `COc1ccc2c(c1)nc1n2C(c2c(Cl)cccc2Cl)SC1` (stereo unspecified) was tested. Which GI50 (HCC 2998) did it give?
A: 11.2 µM (inactive)

Q: And the GI50 (NCI-H460)?
A: 12.1 µM (inactive)

Q: What about the GI50 (NCI-H226) of the same compound?
A: > 21.8 µM (inactive)

Q: What about the GI50 (SNB-75) of the same compound?
A: > 28.2 µM (inactive)

Q: What about the GI50 (SN12C) of the same compound?
A: > 57.5 µM (inactive)

Q: What about the GI50 (SK-OV-3) of the same compound?
A: > 51.9 µM (inactive)

Q: And the GI50 (SNB-19)?
A: > 33.5 µM (inactive)

Q: What about the GI50 (COLO 205) of the same compound?
A: 4.63 µM (inactive)

Q: What about the GI50 (786-0) of the same compound?
A: 21.3 µM (inactive)

Q: And the GI50 (HCT-15)?
A: 5.81 µM

Q: And the GI50 (A549)?
A: 18 µM (inactive)

Q: What about the GI50 (UO-31) of the same compound?
A: 46.5 µM (inactive)

Q: And the GI50 (MDA-MB-231)?
A: 29.3 µM (inactive)

Q: And the GI50 (BT-549)?
A: > 67.3 µM (inactive)

Q: What about the GI50 (T47D) of the same compound?
A: 16.9 µM (inactive)

Q: And the GI50 (OVCAR-5)?
A: > 67.8 µM (inactive)

Q: And the GI50 (SK-MEL-2)?
A: > 20.7 µM (inactive)

Q: And the GI50 (HT-29)?
A: 15.2 µM (inactive)

Q: And the GI50 (U-251)?
A: 21.4 µM (inactive)

Q: What about the GI50 (SF-539) of the same compound?
A: 9.1 µM (inactive)

Q: What about the GI50 (OVCAR-3) of the same compound?
A: > 20.5 µM (inactive)

Q: What about the GI50 (UACC-257) of the same compound?
A: 37.8 µM (inactive)

Q: What about the GI50 (EKVX) of the same compound?
A: > 64.1 µM (inactive)

Q: And the GI50 (IGROV-1)?
A: 18.1 µM (inactive)

Q: What about the GI50 (HOP-62) of the same compound?
A: 32.9 µM (inactive)

Q: And the GI50 (K562)?
A: > 100 µM (inactive)

Q: What about the GI50 (KM12) of the same compound?
A: 12.4 µM (inactive)

Q: And the GI50 (A498)?
A: 46.5 µM (inactive)

Q: What about the GI50 (UACC-62) of the same compound?
A: 18.4 µM (inactive)

Q: What about the GI50 (NCI/ADR-RES) of the same compound?
A: 4.12 µM (inactive)

Q: What about the GI50 (Hs-578T) of the same compound?
A: 5.45 µM (inactive)

Q: And the GI50 (MOLT-4)?
A: > 21.6 µM (inactive)

Q: What about the GI50 (CAKI-1) of the same compound?
A: > 60.7 µM (inactive)

Q: What about the GI50 (SK-MEL-28) of the same compound?
A: 25.9 µM (inactive)

Q: What about the GI50 (MDA-N) of the same compound?
A: 2.26 µM (inactive)

Q: And the GI50 (TK-10)?
A: > 58.6 µM (inactive)

Q: And the GI50 (ACHN)?
A: 40.8 µM (inactive)

Q: What about the GI50 (LOX IMVI) of the same compound?
A: 25.8 µM (inactive)

Q: And the GI50 (OVCAR-8)?
A: > 61 µM (inactive)

Q: And the GI50 (OVCAR-4)?
A: > 46.6 µM (inactive)

Q: What about the GI50 (SF-295) of the same compound?
A: 5.71 µM (inactive)

Q: What about the GI50 (SK-MEL-5) of the same compound?
A: 5.02 µM (inactive)

Q: And the GI50 (RPMI-8226)?
A: > 23.5 µM (inactive)

Q: What about the GI50 (SF-268) of the same compound?
A: 20 µM (inactive)

Q: What about the GI50 (M14) of the same compound?
A: 12.4 µM (inactive)

Q: And the GI50 (MCF7)?
A: 5.68 µM (inactive)

Q: And the GI50 (Malme-3M)?
A: 3.01 µM (inactive)

Q: What about the GI50 (HOP-92) of the same compound?
A: > 71.4 µM (inactive)

Q: What about the GI50 (PC-3) of the same compound?
A: > 33.3 µM (inactive)

Q: And the GI50 (HCT-116)?
A: 7.85 µM (inactive)

Q: What about the GI50 (MDA-MB-435) of the same compound?
A: 2.59 µM (inactive)

Q: And the GI50 (NCI-H23)?
A: 38.4 µM (inactive)

Q: And the GI50 (DU-145)?
A: 22.3 µM (inactive)
